Assay results taken from PubChem BioAssay (NCI).
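Grown in 96-well plates, cells were treated for 48 hours with each compound at five concentrations. Insufficient inhibition: endpoint recorded as highest concentration tested. At the TGI there is no net growth.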

Legend:
Assay in all cases: DTP human tumour cell line panel, 48 h
[1] = system: MCF7 breast
[2] = system: OVCAR-4 ovarian
[3] = system: NCI/ADR-RES ovarian
[4] = system: SF-539 CNS
[5] = system: BT-549 breast
[6] = system: SK-MEL-28 melanoma
[7] = system: U251 CNS
[8] = system: MDA-MB-231 breast
[9] = system: OVCAR-8 ovarian
[10] = system: SN12C renal
[11] = system: SNB-75 CNS
[12] = system: UO-31 renal
[13] = system: MDA-MB-435
[14] = system: MDA-N
[15] = system: SK-MEL-5 melanoma
[16] = system: CCRF-CEM leukemia
[17] = system: SK-MEL-2 melanoma

Row | Structure (SMILES) | TGI [1] [µM] | TGI [2] [µM] | TGI [3] [µM] | TGI [4] [µM] | TGI [5] [µM] | TGI [6] [µM] | TGI [7] [µM] | TGI [8] [µM] | TGI [9] [µM] | TGI [10] [µM] | TGI [11] [µM] | TGI [12] [µM] | TGI [13] [µM] | TGI [14] [µM] | TGI [15] [µM] | TGI [16] [µM] | TGI [17] [µM]
1 | CC(C)(C)c1ccc(-n2c3nc(=O)n(-c4ccccc4CO)c(=O)c-3cc3ccccc32)cc1 | > 100 | > 100 | > 100 | 88.1 | > 100 | > 100 | > 100 | > 100 | > 100 | > 100 | > 100 | > 100 | 99.4 | 62.9 | > 100 | 66.3 | –
2 | Cc1ccc(N2CCC3(CC2)OCCO3)cc1 | – | > 100 | > 100 | > 100 | > 100 | > 100 | > 100 | > 100 | > 100 | > 100 | > 100 | > 100 | > 100 | > 100 | > 100 | > 100 | > 100
3 | COC(=O)C1(C(=O)OC)Cc2ccc(C)cc2C2=C1C(=O)c1ccccc1C2=O | 35.7 | 23.7 | 80.1 | 61.8 | – | 32.5 | – | 33 | 34.6 | 48.1 | 32.2 | – | 31.4 | 32 | 28.6 | 49.4 | 30.7
4 | COc1ccc2c(c1)Oc1cc(O)ccc1[C@@H]2c1ccccc1C(=O)NC(C)c1ccccc1 (some centres not stated) | – | – | – | 31 | – | 31.3 | 28.8 | – | 46.7 | 28.6 | 36.3 | 34.1 | – | – | 32.2 | 98.7 | 46.6
5 | COC(=O)c1c2c(cc3c1CC1(Cc4ccc(C(C)=O)cc4C1)C3)CCC2 (configuration not stated) | > 100 | > 100 | > 100 | > 100 | > 100 | > 100 | > 100 | > 100 | > 100 | > 100 | > 100 | > 100 | 50.8 | 28.5 | 45.4 | > 100 | –
6 | COc1ccc(/C=C2\N=C(SC)N(CN3CCCCC3)C2=O)cc1 | > 100 | > 100 | > 100 | – | – | > 100 | > 100 | > 100 | > 100 | > 100 | > 100 | > 100 | > 100 | > 100 | > 100 | – | > 100
7 | COc1cc2c(cc1OC)[C@H]1C(COC(=O)c3ccccc3)CSC(=Nc3ccccc3)N1CC2 (some centres not stated) | – | > 100 | – | > 100 | – | > 100 | > 100 | – | > 100 | > 100 | > 100 | > 100 | – | – | > 100 | > 100 | > 100
8 | COc1c(Br)cc(/C=C(\C#N)c2cccnc2)cc1Br | > 100 | > 100 | > 100 | > 100 | > 100 | > 100 | > 100 | – | > 100 | > 100 | > 100 | > 100 | – | > 100 | > 100 | > 100 | > 100
9 | O=C(O)CCc1cccc2c1oc1c(CCC(=O)O)cccc12 | – | > 100 | – | > 100 | – | > 100 | > 100 | – | > 100 | > 100 | > 100 | > 100 | – | – | > 100 | > 100 | > 100
10 | CC(O)c1ccc[n+](Cc2ccccc2)c1 (configuration not stated) | – | – | – | > 400 | – | > 400 | > 400 | – | > 400 | > 400 | – | – | – | – | > 400 | > 400 | > 400
11 | C=CCc1ccccc1CC1(OCC)OC(=O)c2ccccc21 (configuration not stated) | > 100 | > 100 | – | > 100 | > 100 | > 100 | > 100 | > 100 | > 100 | > 100 | 53.1 | > 100 | 96.9 | 71.8 | > 100 | – | > 100
12 | S=C1CSc2c(ccc3ccccc23)N1 | > 100 | > 100 | > 100 | – | > 100 | > 100 | > 100 | > 100 | > 100 | > 100 | > 100 | > 100 | > 100 | > 100 | > 100 | > 100 | –
13 | CSc1sc(=S)sc1C(=O)N(C)c1ccccc1 | – | > 100 | – | > 100 | – | > 100 | > 100 | – | > 100 | > 100 | 82.5 | > 100 | – | – | > 100 | > 100 | > 100
14 | COC(=O)NC12CC3CC(CC(F)(C3)C1)C2 | – | – | – | > 100 | – | > 100 | > 100 | – | > 100 | – | > 100 | > 100 | – | – | – | > 100 | > 100
15 | Cc1ccc2c(c1)CC1(Cc3c(C)cccc3C1=O)C2=O (configuration not stated) | > 100 | > 100 | > 100 | > 100 | – | > 100 | > 100 | > 100 | > 100 | > 100 | 89.7 | > 100 | > 100 | > 100 | > 100 | > 100 | –
16 | CN(N)/N=N/c1nc[nH]c1[N+](=O)[O-] | – | > 100 | > 100 | > 100 | > 100 | > 100 | > 100 | 60.9 | > 100 | > 100 | > 100 | > 100 | > 100 | > 100 | > 100 | 33 | > 100
17 | NC(CCC(=O)NC(CSC(=O)N(O)c1ccccc1)C(=O)NCC(=O)O)C(=O)O (configuration not stated) | – | > 1000 | – | > 1000 | – | > 1000 | > 1000 | – | > 1000 | > 1000 | > 1000 | > 1000 | – | – | > 1000 | > 1000 | > 1000
